Reference: patent US8058442B2 (Technion Research and Development Foundation Ltd., priority 2002, dated 2011)
Read-outs that look alike come from different tables or passages of the source.

Assays:
rat brain MAO-A = biological target: T1, rat brain MAO-A (Rattus norvegicus, UniProt P21396); assay: In vitro inhibition of rat brain MAO-A; type: biochemical; settings: read-out: inhibition of MAO-A
T1 construct: from tissue; host or cells: rat brain homogenate, 4500 g pellet
T1 sequence (P21396 1-526): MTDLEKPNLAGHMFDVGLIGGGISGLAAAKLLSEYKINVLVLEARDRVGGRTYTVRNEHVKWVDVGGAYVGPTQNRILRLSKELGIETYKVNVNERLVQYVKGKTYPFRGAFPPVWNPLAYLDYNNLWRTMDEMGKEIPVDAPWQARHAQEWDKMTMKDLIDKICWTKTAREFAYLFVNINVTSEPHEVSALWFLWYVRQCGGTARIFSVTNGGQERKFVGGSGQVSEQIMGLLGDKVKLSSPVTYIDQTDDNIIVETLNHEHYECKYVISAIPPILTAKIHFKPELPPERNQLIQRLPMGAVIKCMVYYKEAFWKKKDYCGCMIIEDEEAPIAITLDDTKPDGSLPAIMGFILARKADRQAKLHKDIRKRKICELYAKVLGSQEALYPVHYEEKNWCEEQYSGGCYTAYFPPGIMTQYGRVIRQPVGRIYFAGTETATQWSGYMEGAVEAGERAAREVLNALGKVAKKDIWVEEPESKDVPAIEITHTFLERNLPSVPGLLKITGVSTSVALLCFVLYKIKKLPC
Description: (§1) Rats were decapitated and the brains were quickly taken into a weighted ice-cold sucrose buffer (0.32 M), and their weights were determined. All subsequent procedures were performed at 0-4° C. The brains were homogenized in 0.25 M sucrose (one part tissue to 20 parts sucrose) in a Teflon glass homogenizer followed by the addition of sucrose buffer to a final concentration of 10% homogenate. The homogenates were centrifuged at 600 g for 15 min. The supernatant fraction was taken out and centrifuged at 4500 g for 30 min, the pellet was diluted in 0.32 M sucrose buffer and kept frozen for later assaying of MAO. Protein concentration was determined with Bradford reagent at 595 nm, using bovine serum albumin as a standard.
(§2) The test compound was added to a suitable dilution of the enzyme preparation (70 μg protein for MAO-B and 150 μg MAO-A assay) in 0.05 M phosphate buffer (pH 7.4). The mixture was incubated together with […], a specific inhibitor of MAO-B (for determination of MAO-A) or […] clorgylin, a specific inhibitor of MAO-A (for determination of MAO-B). Incubation was carried for 1 h at 37° C. before addition of ^14C-5-hydroxytryptamine binoxalate ([…]) for determination of MAO-A, or ^14C-phenylethylamine 100 µM for determination of MAO-B, and incubation continued for 30 min or 20 min, respectively. The reaction was stopped with 2 M ice-cold citric acid, and the metabolites were extracted and determined by liquid-scintillation counting in cpm units.
(§3) MAO-A and MAO-B activities were determined in rat brain homogenate in vitro following incubation with varying concentrations of the test compounds.
In another experiment, the in vitro inhibitory activity of HLA20, M32, VK-28, M30, M31, and propargylamine (P) was tested against rat brain MAO-A. The test compounds were added to buffer containing 10^−7M deprenyl and were incubated with the tissue homogenate for 60 min at 37° C. before addition of ^14C-5-hydroxytryptamine. MAO-A activity in presence of the test compound was expressed as a percentage of that in control samples.

[1] = system: human erythroleukemia K562 cells; assay: Iron permeation of the chelators into calcein-loaded K562 cells; type: cell-based; settings: 5 μM chelator, 37° C.
Description: The iron-scavenging properties of the chelators were assessed in human erythroleukemia K562 cells, by loading with the permeant CAL-AM probe, in situ formation of free CAL, and binding of cytosolic labile iron. Calcein-AM readily passes through the cell membrane of viable cells because of the enhanced hydrophobicity as compared to Calcein. When Calcein-AM permeates into the cytoplasm, it is hydrolyzed by esterases in cells to the parent Calcein, a pH-independent, cytosolic fluorescent marker, which remains inside of the cell. The time-dependent recovery of fluorescence in the presence of a given chelator provided a continuous measure for the capacity of the chelator to access the iron/CAL-containing compartment.
Calcein uptake and intracellular fluorescence were determined as follows: K562 erythroleukemia cells were preloaded with calcein (CAL) by incubation with […] of the fluorescent probe CAL-AM for 5 min at 37° C., washed and incubated in HBS medium containing anti-CAL antibodies in order to quench traces of extracellular-associated fluorescence. The suspensions were placed in 96-well plates (100 μl final volume) and analyzed as described above while maintaining the system at 37° C. At the indicated time, the indicated chelator was added so as to reach a final 5 μM concentration.
The values of half maximal time (sec) and fraction of fluorescence recovery were: […]

rat brain MAO-B = biological target: T2, rat brain MAO-B (Rattus norvegicus, UniProt P19643); assay: In vitro inhibition of rat brain MAO-B; type: biochemical; settings: read-out: inhibition of MAO-B
T2 construct: from tissue; host or cells: rat brain homogenate, 4500 g pellet
T2 sequence (P19643 1-520): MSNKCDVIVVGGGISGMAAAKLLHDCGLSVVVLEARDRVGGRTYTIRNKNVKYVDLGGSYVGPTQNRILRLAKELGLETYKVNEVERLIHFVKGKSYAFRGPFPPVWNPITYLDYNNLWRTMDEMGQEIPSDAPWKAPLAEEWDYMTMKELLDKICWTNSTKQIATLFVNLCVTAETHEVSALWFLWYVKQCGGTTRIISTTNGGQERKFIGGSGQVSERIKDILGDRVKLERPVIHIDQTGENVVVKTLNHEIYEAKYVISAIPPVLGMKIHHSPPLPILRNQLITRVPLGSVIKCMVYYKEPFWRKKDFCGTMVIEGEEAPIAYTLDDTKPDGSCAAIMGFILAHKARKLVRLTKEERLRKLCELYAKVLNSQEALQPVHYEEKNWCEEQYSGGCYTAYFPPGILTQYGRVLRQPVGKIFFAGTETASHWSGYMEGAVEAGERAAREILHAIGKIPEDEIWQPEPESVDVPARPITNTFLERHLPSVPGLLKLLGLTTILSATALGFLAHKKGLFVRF
Description: as §1, §2, §3
MAO-B activity in presence of the test compound was expressed as a percentage of that in control samples.

[2] = Iron chelation in solution: fluorescence dequenching of iron-quenched calcein; settings: Fe-CAL in HBS pH 7.4, room temperature, 1 h incubation, read-out: half maximal dequenching level
Description: Iron binding was determined by the chelator capacity for restoring the fluorescence of iron-quenched calcein (CAL), a dynamic fluorescent metallosensor. The iron-scavenging properties of the chelators were assessed in solution, by mixing iron salts with free CAL.
Iron precomplexed calcein (Fe-CAL) solutions of 1 μm (in Hepes 20 mM buffered saline, pH 7.4=HBS) were incubated in the presence of the indicated concentrations of different chelators at room temperature and the fluorescence intensity (475 nm->520 nm) followed with time in a Tecan fluorescence plate reader, using 96-well culture plates (Nunc) at 100 μl final volume. The time-dependent complexation of iron from Fe-CAL by the chelators was followed by fluorescence dequenching. The fluorescence intensity attained after 1 h incubation is shown as a function of the chelator concentration.
The corresponding half maximal dequenching level for the corresponding chelator was (in μM) (rank order from the fastest acting to the slowest): […]

Compound	inhibition at 100 µM (rat brain MAO-A)	half maximal time ([1]; FIG. 2A)	half maximal time ([1]; FIG. 2B)	inhibition at 100 µM (rat brain MAO-B)	EC50 ([2]; FIG. 1A)	EC50 ([2]; FIG. 1B)	inhibition at 100 µM (rat brain MAO-A; 100 μM)	half maximal time ([1]; FIG. 2C)	inhibition at 100 µM (rat brain MAO-B; 100 μM)	EC50 ([2]; FIG. 1C)
C#CCN1CCN(Cc2ccc(O)c3ncccc23)CC1 [HLA20, 5-(4-propargylpiperazin-1-ylmethyl)-8-hydroxyquinoline]	26.1%	175 s	390 s	42%	3.5 µM	5.4 µM				
OCCN1CCN(Cc2ccc(O)c3ncccc23)CC1 [VK-28, 5-[4-(2-hydroxyethyl)piperazin-1-ylmethyl]-8-hydroxyquinoline, reference compound]			1250 s			5.2 µM	15.1%	1500 s	13.3%	3.2 µM
